The text below walks through data of patent US9365851B2, “Spalt-like transcription factor 4 (SALL4) and uses thereof” (National University of Singapore, priority 2011, dated 2016).

“Also recorded” adds a separate entry of the source.

This experiment relates to HL-60 cells. Kind of experiment: Cell viability assay (MTT/MTS). The format is cell-based, human. As to conditions: HL-60, 48-72 h. On the procedure:
FIG. 17: SALL4 peptide reduces the viability of leukemic HL-60 cells. HL60 human acute promyelocytic leukemia cells (ATCC), were cultured in RPMI medium with 10% FBS (Invitrogen). 5000 cells/well were seeded in 96 well plate. Peptides: MSRRKQAKPQHI-wt (SEQ ID NO: 1) and MSRRAQAKPQHI-mutant (SEQ ID NO: 6) were synthesized by Biosynthesis Inc. to 85% purity. Peptides and TSA were re-suspended in PBS and added to the final concentration as indicated. WT peptide was re-added 24 hours after the initial addition as indicated. Experiment was performed in triplicate. MTS assay was performed by adding 20 ul of the CellTiter 96® AQueous One Solution Reagent (Promega) directly to the cells in medium, incubating for 2 hours and then recording absorbance at 490 nm with a 96-well plate reader. The quantity of formazan product as measured by the amount of 490 nm absorbance is directly proportional to the number of living cells in culture.
Cell viability assay (MTT) (Invitrogen) was performed according to the manufacturer's instructions. Briefly—10000 cells were seeded in 100 ul medium in 96 well plates. The next day cells were treated as indicated on the figures. At the designated time after the treatment 20 ul of 5 mg/ml MTT solution was added to each well. After 3.5 h incubation at 37 C the medium was removed and the reaction was terminated with a solution of 4 mM HCl, 0.1% Nondet P-40 (NP40) all in isopropanol in dark on orbital shaker for […]. at room temperature. The absorbance was read at 590 nm with a reference filter of 620 nm in Spectromax M3 (ABI) spectrophotometer.
Multiple cell lines with or without SALL4 expression were chosen to test the biological effect(s) of this wt peptide. Wt or its control (Scr or Mut) peptide was delivered into tumor cells at various concentrations, and their effects on cells were evaluated at 48 or 72 hours post treatment by a MTT assay (Manufacture name). […] Since, as proposed herein, wt peptide can compete with SALL4 and release it from recruiting HDAC complex NuRD, the wt peptide would likely work as a HDAC inhibitor. Therefore, as a positive control, TSA, a broad HDAC inhibitor, was used in the same group of experiments along with the wt and Scr peptide.
Multiple leukemic and solid tumor cancer cell lines with high or low/no SALL4 expression (FIG. 10A) were chosen to test the biological effect(s) of the wild type peptide. Wild type or scrambled peptide was delivered into tumor cells at various concentrations, and their effects on cells were evaluated 72 hours post-treatment by the MTS cell viability assay. […] The effect of wild type peptide is SALL4-specific, as it had no effect on KBM5, an AML cell line with undetectable endogenous SALL4 expression. […] Therefore, expression of PTEN was evaluated in AN3CA cells along with other cell lines. […]

Consider “H-MSRRKQAKPQHI-OH [wt peptide, MSRRKQAKPQHI]”, for which the cell viability result is given as “decreased cell viability”. Further, for the setting “listed as WT”, the cell viability entry is on record as “decrease in cell viability”. Also, the cell viability result (listed as wild type peptide) is “decreased cell viability; also recorded: reduces the number of the living cells”.

For “Scr peptide: same 12 amino acids as the wt peptide, but in a scrambled sequence; negative control (SRMRQKIHPKIQ) [reference compound]”, the cell viability result is recorded as “remained unaffected”.
